Measured values reported in publication PMC11527646, “Pharmacological blockade of the mast cell MRGPRX2 receptor supports investigation of its relevance in skin disorders” (Frontiers in Immunology, 2024).

What was measured:
[1] = system: ion channel and enzyme targets; assay: In vitro assays of the human safety prediction panel; conditions: data not shown
Excerpt: Among them, the NK1 receptor with which SP is the canonical and high-affinity endogenous ligand.

5-HT2B receptor (HTR2B) = 5-HT2B receptor (HTR2B) (Homo sapiens, UniProt P41595); assay: GPCR selectivity cellular assay; format: cell-based; conditions: Agonism; read-out: Agonist Activity (EC50)
Chain of 5-HT2B receptor (HTR2B) (P41595 whole entry): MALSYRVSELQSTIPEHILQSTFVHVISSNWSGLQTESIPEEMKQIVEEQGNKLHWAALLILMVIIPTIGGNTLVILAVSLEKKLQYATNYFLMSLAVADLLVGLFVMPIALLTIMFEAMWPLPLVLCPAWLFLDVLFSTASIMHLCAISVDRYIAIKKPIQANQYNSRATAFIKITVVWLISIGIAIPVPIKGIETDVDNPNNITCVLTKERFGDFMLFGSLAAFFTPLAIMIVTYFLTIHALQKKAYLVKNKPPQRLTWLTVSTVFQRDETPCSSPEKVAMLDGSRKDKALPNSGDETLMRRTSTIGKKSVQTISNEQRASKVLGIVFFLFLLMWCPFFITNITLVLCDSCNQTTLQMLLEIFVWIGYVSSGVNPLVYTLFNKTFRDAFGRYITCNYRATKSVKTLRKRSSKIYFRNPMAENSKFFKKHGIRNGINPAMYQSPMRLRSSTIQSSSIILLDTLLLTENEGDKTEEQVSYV
Description: (§1) tagonists, with little activity detected on other GPCRs. Antagonist and/or agonist activities of the two compounds were determined in cellular assays for 20 human G-protein coupled receptors (GPCR) beside MRGPRX2. Recombinant over-expression systems in mammalian cells were used for all assays listed in this table. […]
(§2) reported as ‘>’ the highest compound concentration allowed in that assay.
(§3) GPCR Target Name Gene symbol Mode of Activity Compound-A Compound-B […]
(§4) Agonist Activity (EC50 ) or Antagonist Activity (IC50 ), nM […]

M1 receptor (CHRM1) = biological target: T1, M1 receptor (CHRM1) (Homo sapiens, UniProt P11229); assay: GPCR selectivity cellular assay; format: cell-based; conditions: for EC50: Agonism, read-out: Agonist Activity (EC50); for IC50: Antagonism, read-out: Antagonist Activity (IC50)
T1 construct: expressed in transfected cells
T1 sequence (P11229 1-460): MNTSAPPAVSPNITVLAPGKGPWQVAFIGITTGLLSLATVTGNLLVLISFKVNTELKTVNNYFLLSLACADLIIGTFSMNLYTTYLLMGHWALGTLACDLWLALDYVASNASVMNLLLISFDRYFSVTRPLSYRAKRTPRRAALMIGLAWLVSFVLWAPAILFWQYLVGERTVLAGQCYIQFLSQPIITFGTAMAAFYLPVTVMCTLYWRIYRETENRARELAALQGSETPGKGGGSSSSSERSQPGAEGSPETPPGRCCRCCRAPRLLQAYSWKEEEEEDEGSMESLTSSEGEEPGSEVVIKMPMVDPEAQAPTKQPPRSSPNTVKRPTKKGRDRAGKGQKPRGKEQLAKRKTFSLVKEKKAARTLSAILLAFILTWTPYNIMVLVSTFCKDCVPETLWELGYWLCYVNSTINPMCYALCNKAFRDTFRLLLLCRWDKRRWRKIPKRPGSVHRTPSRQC
Description: as §1, §2, §3, §4

5-HT1B receptor (HTR1B) = biological target: T2, 5-HT1B receptor (HTR1B) (Homo sapiens, UniProt P28222); assay: GPCR selectivity cellular assay; format: cell-based; conditions: Agonism; read-out: Agonist Activity (EC50)
T2 construct: expressed in transfected cells
T2 sequence (P28222 whole entry): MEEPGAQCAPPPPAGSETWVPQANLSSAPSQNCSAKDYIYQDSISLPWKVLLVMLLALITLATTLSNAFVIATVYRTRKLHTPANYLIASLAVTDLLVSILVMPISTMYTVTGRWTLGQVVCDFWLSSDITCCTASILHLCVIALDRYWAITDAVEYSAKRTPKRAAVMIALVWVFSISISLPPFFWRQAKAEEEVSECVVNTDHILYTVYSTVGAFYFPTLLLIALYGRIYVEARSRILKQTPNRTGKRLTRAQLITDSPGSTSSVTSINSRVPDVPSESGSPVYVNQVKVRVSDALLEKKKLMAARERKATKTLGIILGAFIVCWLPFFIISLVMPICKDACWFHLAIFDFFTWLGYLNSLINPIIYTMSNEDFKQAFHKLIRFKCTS
Description: as §1, §2, §3, §4

M2 receptor (CHRM2) = biological target: T3, M2 receptor (CHRM2) (Homo sapiens, UniProt P08172); assay: GPCR selectivity cellular assay; format: cell-based; conditions: for EC50: Agonism, read-out: Agonist Activity (EC50); for IC50: Antagonism, read-out: Antagonist Activity (IC50)
T3 construct: expressed in transfected cells
T3 sequence (P08172 1-466): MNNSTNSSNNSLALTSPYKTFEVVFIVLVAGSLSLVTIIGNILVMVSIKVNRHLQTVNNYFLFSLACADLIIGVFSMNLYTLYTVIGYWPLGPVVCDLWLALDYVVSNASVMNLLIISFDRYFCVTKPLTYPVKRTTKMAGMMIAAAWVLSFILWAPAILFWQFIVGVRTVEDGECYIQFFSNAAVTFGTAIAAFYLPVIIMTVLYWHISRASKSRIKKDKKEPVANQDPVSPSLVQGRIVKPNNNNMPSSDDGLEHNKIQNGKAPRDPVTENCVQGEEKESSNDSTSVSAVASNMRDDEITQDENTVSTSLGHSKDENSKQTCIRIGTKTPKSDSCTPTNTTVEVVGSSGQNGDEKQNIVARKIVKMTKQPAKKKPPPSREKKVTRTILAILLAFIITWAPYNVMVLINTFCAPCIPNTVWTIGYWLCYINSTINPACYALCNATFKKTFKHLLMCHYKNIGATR
Description: as §1, §2, §3, §4

D1 receptor (DRD1) = biological target: T4, D1 receptor (DRD1) (Homo sapiens, UniProt P21728); assay: GPCR selectivity cellular assay; format: cell-based; conditions: Antagonism; read-out: Antagonist Activity (IC50)
T4 construct: expressed in transfected cells
T4 sequence (P21728 whole entry): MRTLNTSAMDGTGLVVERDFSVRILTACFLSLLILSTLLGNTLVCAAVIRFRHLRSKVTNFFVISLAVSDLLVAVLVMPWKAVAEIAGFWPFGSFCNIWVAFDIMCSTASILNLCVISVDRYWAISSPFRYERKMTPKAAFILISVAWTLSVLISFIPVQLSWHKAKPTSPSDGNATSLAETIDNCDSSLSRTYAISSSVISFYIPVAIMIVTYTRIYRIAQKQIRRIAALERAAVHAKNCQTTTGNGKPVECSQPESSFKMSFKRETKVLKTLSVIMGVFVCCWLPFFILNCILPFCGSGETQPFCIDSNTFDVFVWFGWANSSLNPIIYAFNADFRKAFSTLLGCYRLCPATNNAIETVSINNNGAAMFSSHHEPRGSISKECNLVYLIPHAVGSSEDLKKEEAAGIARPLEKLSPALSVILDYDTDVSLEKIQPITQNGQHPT
Description: as §1, §2, §3, §4

A2A receptor (ADORA2A) = biological target: T5, A2A receptor (ADORA2A) (Homo sapiens, UniProt P29274); assay: GPCR selectivity cellular assay; format: cell-based; conditions: Agonism; read-out: Agonist Activity (EC50)
T5 construct: expressed in transfected cells
T5 sequence (P29274 whole entry): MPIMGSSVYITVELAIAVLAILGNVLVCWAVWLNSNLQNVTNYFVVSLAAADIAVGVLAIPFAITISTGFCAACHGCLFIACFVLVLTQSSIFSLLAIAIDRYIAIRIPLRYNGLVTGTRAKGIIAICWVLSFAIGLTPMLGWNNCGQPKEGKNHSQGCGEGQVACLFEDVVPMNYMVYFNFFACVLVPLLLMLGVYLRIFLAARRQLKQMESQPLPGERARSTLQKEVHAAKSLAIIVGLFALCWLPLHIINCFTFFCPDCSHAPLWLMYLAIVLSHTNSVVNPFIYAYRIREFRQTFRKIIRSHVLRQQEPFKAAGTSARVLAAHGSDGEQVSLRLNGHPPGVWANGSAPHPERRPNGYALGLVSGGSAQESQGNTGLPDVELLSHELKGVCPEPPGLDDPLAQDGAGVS

For `CC1(C)C(C(=O)Nc2ccccn2)C1(C)C` [Compound A], the “Activity on ion channel and enzyme targets” value [1] was “inactive”, the EC50 (5-HT2B receptor (HTR2B)) was 27.1 µM and the EC50 (M1 receptor (CHRM1)) was over 50 µM. The IC50 (M1 receptor (CHRM1)) was over 50 µM, the EC50 (5-HT1B receptor (HTR1B)) was 11.9 µM and the EC50 (M2 receptor (CHRM2)) was over 50 µM. For the same compound, the IC50 (M2 receptor (CHRM2)) was over 50 µM, the IC50 (D1 receptor (DRD1)) was over 100 µM and the EC50 (A2A receptor (ADORA2A)) was over 100 µM.
With `C[C@@H](C(=O)Nc1cnc(Oc2ccc(F)cc2F)cn1)N1CCC(F)(F)[C@@H](c2cc[n+]([O-])cc2)C1` [Compound B] the “Activity on ion channel and enzyme targets” value [1] was “inactive”, the EC50 (5-HT2B receptor (HTR2B)) was over 100 µM and the EC50 (M1 receptor (CHRM1)) was over 50 µM. It also gave an IC50 (M1 receptor (CHRM1)) of over 50 µM, an EC50 (5-HT1B receptor (HTR1B)) of over 50 µM and an EC50 (M2 receptor (CHRM2)) of over 50 µM. For the same compound, the IC50 (M2 receptor (CHRM2)) was over 50 µM, the IC50 (D1 receptor (DRD1)) was over 100 µM and the EC50 (A2A receptor (ADORA2A)) was over 100 µM.
